The subject of test [1] is MEK/ERK signaling pathway. Put plainly: Western blot of MEK/ERK phosphorylation in EV71-infected Vero cells. The test is classed as cell-based, African green monkey. The settings on record: EV71 H, MOI = 0.1; 24 h treatment. The text has this:
The activation of the MEK/ERK signaling pathway has been certified to play an essential role in EV71 life cycle and pathogenesis in various cell types. […] To learn whether or not 2d would still act through MEK/ERK pathway as its parent BBR does, the inhibition experiment of EV71 via this signaling pathway was done with 2d using BBR as the reference. […] We can conclude that compound 2d inhibited the replication of EV71 through down-regulating MEK/ERK signaling pathway.
(§1) Cells were lysed in the M-PER mammalian protein extraction reagent (Thermo, Rockford, IL, USA) containing halt protease inhibitor single-use cocktail (Thermo). The protein concentration was determined by BCA Protein Assay Kit (Thermo). Equal amount of samples (15 μg proteins) were denatured and applied to sodium dodecyl sulfate-polyacrylamide gel electrophoresis (SDS-PAGE), and then electrophoresis products were transferred to a polyvinylidenefluoride (PVDF) film and blocked by 5% (w/v) milk or BSA at room temperature. An hour later, PVDF membranes were incubated at room temperature with specific primary antibody. After a standard washing, membranes were incubated with horse radish peroxidase (HRP)-labeled secondary antibody. The signals were detected using ECL detection kit (GE Healthcare Life Sciences, Pittsburgh, PA, USA). […]
For orientation: Immunoblotting shows a protein as a band on a membrane.

In test [2] the test system is four different genotype enterovirus 71 (EV71) strains. Put plainly: CPE assay, summary over the four EV71 strains. The test is classed as cell-based. The settings on record: Enterovirus A, EV71, read-out: IC50 values against all tested EV71 strains. On the procedure:
Thus, all newly synthesized BBR analogues were screened for their anti-EV71 potencies in African green monkey kidney (Vero) cells taking BBR as the positive control. EV71 strains used in the present study include different genotype strains, such as H strain (VR-1432, genotype C2), BrCr strain (VR-1775, genotype A), and JS-52 and SHZH98 (genotype C4). The potency against EV71 strains above mentioned of each tested compound was evaluated by the combination of its IC50 and selectivity index (SI) value as the important therapeutic indication.
The anti-EV71 activities of all tested compounds were detected by the virus-induced CPE assay. Briefly, cells (3 × 10^4 cells/well) were plated into 96-well culture plates and incubated for 16 h. Then, remove the medium and infected cells with EV71 of 100 × TCID50 (50% tissue culture infective doses) in serum-free medium for 1 h at 37 °C. After that, the unbound viruses were removed and various concentrations of tested compounds were supplemented for incubation of another 72 h. […] TC50 defined as the concentration that leads to the 50% of CPE which determined by the same method in 72 h. In addition, the cells were stained the cells were colored with 0.5% crystal violet in 20% ethanol for 15 min at room temperature and the cells were imaged after rinsed with PBS.

In the next test the test system is EV71 VP1 protein. Put plainly: EV71 VP1 protein by western blot in infected Vero cells. The settings on record: Vero cells infected with H strain; better than BBR at 40 μM. It counts as cell-based, enterovirus 71 (EV71). The procedure:
(§2) To further confirm the anti-EV71 activity, the VP1 down-regulatory activity of 2d was examined in Vero cells infected with H strain of EV71, in comparison with that of BBR. […] Accordingly, VP1 capsid protein expression was also analyzed to examine its effect on EV71 biological synthesis.
as §1, with “USA). The primary antibodies used in the experiment included β-actin, p-p44/p42 MAPK, p44/p42 MAPK, p-MEK, MEK, p-JNK, JNK, p-AKT, AKT, PI3KIII, LC3B, Beclin-1 (Cell Signaling Technology, Danvers, MA, USA), and EV71-VP1 (Abnova, Taibei, China).” for “USA).”

Test [3] relates to EV71 SHZH98 strain (genotype C4). Put plainly: CPE inhibition assay for anti-EV71, SHZH98 strain. Particulars: Enterovirus A, EV71; Vero cells; CPE; calculated on the organic part; n = 3; read-out: SHZH98 Strain IC50. The test is classed as cell-based, enterovirus 71 (EV71). An outline of the steps: (§3)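 Vero cells infected with 100 × TCID50 EV71 for 1 h at 37 °C in serum-free medium, unbound virus removed, then compounds added for 72 h. IC50 from inhibition of virus-induced CPE; TC50 as concentration giving 50% CPE at 72 h, with selectivity index; crystal violet staining for imaging.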

Test [4] has as its system EV71 H strain (VR-1432, genotype C2). Put plainly: CPE inhibition assay for anti-EV71, H strain. The settings on record: Enterovirus A, EV71; Vero cells; CPE; calculated on the organic part; n = 3; read-out: H Strain IC50. The test is classed as cell-based, enterovirus 71 (EV71). The essentials: as §3
In a further test the test system is EV71 VP1 RNA. Put plainly: EV71 VP1 RNA by one-step qRT-PCR in infected Vero cells. The test is classed as cell-based, enterovirus 71 (EV71). The settings on record: Vero cells infected with H strain; 24 h; better than BBR. The procedure:
as §2
Vero cells (9 × 10^5 cells/well) were plated into 6-well culture plates and incubated for 16 h. The medium was removed and cells were infected with EV71 for 1 h (H). Various concentrations of compound 2d and BBR were supplemented for incubation of another 24 h. Total RNA of the infected cells was isolated using the RNeasy Mini kit (QIAGEN, Hilden, Germany) and the information of the primer was listed in the Table 2.
One-step qRT-PCR was performed with SuperScript III Platinum SYBR Green One-step RT-PCR Kit (Invitrogen, Carlsbad, CA, USA) using the ABI 7500 Fast real-time PCR system (Applied Biosystems, Carlsbad, CA, USA). PCR assay was carried out in a 25 μL volume and the target fragment amplification was carried out as follows: reverse transcription at 50 °C for 3 min; initial activation of HotStar Taq DNA Polymerase at 95 °C for 10 min; 40 cycles in two steps: 95 °C for 15 s, 60 °C for 30 s.
A general note: In qPCR the cycle at which signal appears reflects the starting amount.

The IC50 is the concentration that inhibits the measured activity by half.

Consider `COc1ccc2cc3[n+](cc2c1OCC(=O)OCc1ccccc1)CCc1cc2c(cc1-3)OCO2` [2d, 2,3-Methylenedioxy-9-benzyloxyformylmethylenoxy-10-methoxyprotoberberine chloride], for which the “phosphorylation of MEK and ERK induced by EV71 infection” value in test [1] was “significantly inhibit the phosphorylation of both MEK and ERK”. Besides, the IC50 was 7.12 to 14.8 µM in test [2], 14.8 µM in test [3] and 12.4 µM in test [4]. For the same molecule, the VP1 protein expression result in the test with EV71 VP1 protein is given as “obviously down-regulate the expression of VP1 protein in a dose-dependent manner”. In addition, in the test with EV71 VP1 RNA, the “VP1 RNA expression” value is “significantly reduced VP1 RNA expression in a dose-dependently way”.

The values above are taken from PMC6222558, “Synthesis and Evolution of Berberine Derivatives as a New Class of Antiviral Agents against Enterovirus 71 through the MEK/ERK Pathway and Autophagy” (Molecules : A Journal of Synthetic Chemistry and Natural …, 2018).
